Common to all, as to format: cell-based
One assay concerns MCF7. In words: Cell proliferation assay (Resazurin). The conditions noted are these: Homo sapiens. The procedure:
(§1) Cell proliferation assays were performed to determine the efficacy of the compounds at inhibiting ER or its mutants' ability at promoting cell proliferation.
(§2) Cells were plated at 1500 cells/well into 96-well culture plates in regular media, treated with the indicated doses of the compounds or Fulvestrant the next day and incubated in a humidified incubator with 5% CO2 at 37° C. They were assayed for cell proliferation at Day 0, 3, 5 and 7 using the Resazurin reagent (R&D Systems), which upon addition, culture plates were incubated at 37° C. incubator for 4 hours before their fluorescence were read at 560 nm excitation and 590 nm emission wavelengths with a microtiter plate reader (Molecular Devices).

In another assay the test system is Y537S cl. 24. In words: Cell proliferation assay (Resazurin). The procedure:
as §1, §2

The next assay relates to D538G cl. 65. In words: Cell proliferation assay (Resazurin). The procedure: as §1, §2
A general note: Resazurin is reduced to fluorescent resorufin, in cell work by metabolically active cells.

In the next assay the target is T1, HA-ERα D538G (Homo sapiens, UniProt P03372, D538G).
T1 construct: HA; expressed in transfected cells
T1 sequence (P03372 1-595 D538G): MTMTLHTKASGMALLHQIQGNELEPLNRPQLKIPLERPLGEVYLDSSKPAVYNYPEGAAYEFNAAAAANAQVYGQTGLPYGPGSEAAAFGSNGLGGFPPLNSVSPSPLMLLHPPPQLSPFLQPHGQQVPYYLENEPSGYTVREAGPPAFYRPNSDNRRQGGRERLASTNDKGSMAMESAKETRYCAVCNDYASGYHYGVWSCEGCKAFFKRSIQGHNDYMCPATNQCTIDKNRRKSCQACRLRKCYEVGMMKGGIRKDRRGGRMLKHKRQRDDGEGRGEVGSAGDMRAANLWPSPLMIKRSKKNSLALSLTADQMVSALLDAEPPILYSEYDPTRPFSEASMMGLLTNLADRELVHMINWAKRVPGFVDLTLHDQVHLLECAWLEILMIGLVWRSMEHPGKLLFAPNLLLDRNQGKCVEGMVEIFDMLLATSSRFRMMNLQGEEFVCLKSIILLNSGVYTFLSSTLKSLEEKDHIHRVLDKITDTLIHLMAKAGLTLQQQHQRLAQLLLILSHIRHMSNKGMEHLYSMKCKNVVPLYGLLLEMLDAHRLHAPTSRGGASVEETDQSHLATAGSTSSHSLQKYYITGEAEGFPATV
The assay can be described thus: Luciferase assay, overexpressed ER (3×-ERE-TATA-Luciferase reporter). The procedure:
(§3) Luciferase assays were performed to determine the efficacy of the example compounds at inhibiting ER or its mutants' ability to activate transcription of genes.
(§4) Cells were plated at a density of 0.15×10^6 per well of 24 well plates one day prior to transfection. Cells were transfected with 125 ng (per well) of HA-ERα wild type or mutants, 315 ng (per well) of 3×-ERE-TATA-Luciferase reporter and 50 ng (per well) of pRL-TK Renilla Luciferase plasmid, using Xtremegene (Roche). The cells were treated with the various compounds or Fulvestrant at the indicated doses a day after transfection for 24 hours and luciferase activities were determined using the Dual-Luciferase® Reporter Assay System (Promega) according to manufacturer's instructions. Luciferase bioluminescence measurements were performed with the Veritas™ Microplate Luminometer (Promega). All experiments were conducted in triplicate and the Firefly luciferase activity was normalized with the Renilla luciferase activity of each sample.

In another assay the target is T2, HA-ERα Y537S (Homo sapiens, UniProt P03372, Y537S).
T2 construct: HA; expressed in transfected cells
T2 sequence (P03372 1-595 Y537S): T1 sequence (P03372 1-595 D538G) with Y537S, G538D
The description is as above. The procedure:
as §3, §4

A further assay deals with T3, HA-ERα L536R (Homo sapiens, UniProt P03372, L536R).
T3 construct: HA; expressed in transfected cells
T3 sequence (P03372 1-595 L536R): T1 sequence (P03372 1-595 D538G) with L536R, G538D
The assay is described as above. The procedure: as §3, §4

The target of a further assay is T4, HA-ERα wild type (Homo sapiens, UniProt P03372).
T4 construct: HA; expressed in transfected cells
T4 sequence (P03372 1-595): T1 sequence (P03372 1-595 D538G) with G538D
The description is as above. The procedure:
as §3, §4

The mark [1] stands for this setting: compound concentration 1 μM, 24 hours.

Where a chain is given by its changes, count along the chain named.

A word on the IC90: it is the concentration needed for an effect of 90%. A high value points to a need for much substance. The inhibition is the relative decrease from the control value, in per cent. As for `O=C(NCCCCOc1ccc(Oc2c(-c3ccc(O)cc3)sc3cc(O)ccc23)cc1)[C@H]1CC[C@H](C(F)(F)F)CC1` [Example 17, (trans)-N-(4-(4-((6-Hydroxy-2-(4-hydroxyphenyl)benzo[b]thiophen-3-yl)oxy)phenoxy)butyl)-4-(trifluoromethyl)cyclohexanecarboxamide], the IC90 is 22.1 nM in the assay on MCF7; 304 nM in the assay on Y537S cl. 24; 315 nM in the assay on D538G cl. 65; 175 nM against HA-ERα D538G (luciferase assay, Table 4); 464 nM against HA-ERα Y537S (luciferase assay, Table 4); 124 nM at HA-ERα L536R (luciferase assay, Table 4). On HA-ERα wild type (luciferase assay, Table 4), this molecule registered an IC90 of 19 nM. Also, the inhibition at 1 µM against HA-ERα D538G (setting [1]) came out at 95%; against HA-ERα Y537S (setting [1]), 95%; on HA-ERα L536R (setting [1]), 94%; on HA-ERα wild type (compound concentration 1 μM, 24 hours, read-out: Overexpressed ER (% Inhibition) WT), 96%.

Source of the values: US11667621B2, “Antiestrogen compounds” (STEVENS INSTITUTE OF TECHNOLOGY, priority 2018, dated 2023).
